# Laboratory results reported in US7557133B2, “Caspase inhibitors containing isoxazoline ring” (LG Life Sciences Ltd., priority 2003, dated 2009).
# Columns and labels:
# caspase-8 = target: T1, caspase-8 (Homo sapiens, UniProt Q14790); experiment: Caspase-8 inhibitory effect (fluorescent substrate AcDEVD-AFC); assay type: biochemical; conditions: pH 7.5; 25° C., 50 μM AcDEVD-AFC, 2.1 nM caspase-8; read-out: Caspase-8 Kobs/[I] (converted)
# T1 construct: p10 and p20 subunits (Thornberry, N. A. et al, Nature, 1992, 356, 768) were expressed in E. coli; made in house; host or cells: E. coli
# T1 sequence (Q14790 217-374 limits assumed, species assumed): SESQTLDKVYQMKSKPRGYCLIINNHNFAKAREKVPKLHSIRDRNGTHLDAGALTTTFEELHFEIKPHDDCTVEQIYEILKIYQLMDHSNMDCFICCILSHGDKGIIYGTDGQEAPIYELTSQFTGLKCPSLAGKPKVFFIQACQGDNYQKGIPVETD
# T1 sequence (Q14790 385-479 limits assumed, species assumed): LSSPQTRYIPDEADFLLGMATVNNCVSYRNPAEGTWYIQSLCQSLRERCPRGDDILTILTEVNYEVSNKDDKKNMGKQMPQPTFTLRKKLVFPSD
# Procedure: (§1) Caspase-1 and caspase-8 known as cysteine proteases in the form of α2β2 were expressed, purified, and activated by modifying a method known in Thornberry, N. A. et al, Nature, 1992, 356, 768. Thornberry, N. A. Methods in Enzymology, 1994, 244, 615. Walker, N. P. C. et al. Cell, 1994, 78, 343, and caspase-9 was also purified by a similar method, and the inhibitory activity against them was tested. Briefly describing, p10 and p20 subunits (Thornberry, N. A. et al, Nature, 1992, 356, 768) were expressed in E. coli and purified by nickel column and anionic exchange chromatography to give caspase-1, caspase-8 and caspase-9. The fluorescent substrate AcYVAD-AFC for thus obtained caspase-1, AcDEVD-AFC for caspase-8, and AcLEHD-AFC for caspase-9 were used for determining specific activity of the synthesized inhibitors. The enzyme reaction was carried out at 25° C. with various concentrations of the inhibitors in a buffer solution containing 50 mM HEPES(pH 7.50), 10% (w/v) sucrose, 0.1% (w/v) CHAPS, 100 mM NaCl, 1 mM EDTA, and 10 mM DTT in the presence of 50 μM AcYVAD-AFC for 10 nM caspase-1, 50 μM AcDEVD-AFC for 2.1 nM caspase-8, and 150 μM AcLEHD-AFC for 200 nM caspase-9. The inhibitory constants Ki and Kobs of the inhibitors were determined by measuring the reaction velocity with the time lapse using a fluorescent spectrometer and by obtaining the initial rate constant. Ki was calculated from the Lineweaver Burk Plot, and Kobs from the following Equation 1. Kobs=−ln(1−At/Aoo)/t Equation 1
# (§2) At means cleavate rate (%) at time t, and
# (§3) Aoo means the maximum cleavage rate (%).
# (§4) Spectra MAX GeminiXS Fluorescent Spectrometer of Molecular Device Co. was used at the excitation wavelength of 405 nm and the emission wavelength of […].
# caspase-1 = target: T2, caspase-1 (Homo sapiens, UniProt P29466); experiment: Caspase-1 inhibitory effect (fluorescent substrate AcYVAD-AFC); assay type: biochemical; conditions: pH 7.5; 25° C., 50 μM AcYVAD-AFC, 10 nM caspase-1; read-out: Caspase-1 Kobs/[I] (converted)
# T2 construct: p10 and p20 subunits (Thornberry, N. A. et al, Nature, 1992, 356, 768) were expressed in E. coli; made in house; host or cells: E. coli
# T2 sequence (P29466 120-297 limits assumed): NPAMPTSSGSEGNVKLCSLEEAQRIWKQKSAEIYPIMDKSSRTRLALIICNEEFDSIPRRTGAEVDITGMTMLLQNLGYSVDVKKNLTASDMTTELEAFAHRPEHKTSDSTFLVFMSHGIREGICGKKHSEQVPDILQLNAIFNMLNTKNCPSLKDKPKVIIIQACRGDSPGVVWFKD
# T2 sequence (P29466 317-404 limits assumed): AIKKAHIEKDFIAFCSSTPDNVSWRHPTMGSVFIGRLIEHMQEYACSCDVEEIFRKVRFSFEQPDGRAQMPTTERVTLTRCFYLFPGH
# Procedure: as §1, §2, §3, §4
# [1] = test system: Jurkat cell (ATCC TIB-152); experiment: Jurkat cell apoptosis by Fas antibody, WST-1 method; assay type: cell-based; conditions: Homo sapiens, Jurkat, apoptosis using Fas antibody, WST-1
# Procedure: The […] inhibitory activity of the inhibitors was determined by subjecting Jurkat cell (ATCC TIB-152) to apoptosis using Fas antibody (Upstate Biotech 05-201) and by detecting the color change according to the WST-1 method known in Francoeur A. M. and Assalian A. (1996) Biochemica 3, 19-25 to observe the amount of alive Jurkat cells when the cells were treated by the inhibitor. Spectra MAX 340 Spectrometer of Molecular Device Co. was used at the absorbance wavelength of 440 nm.
# caspase-9 = target: T3, caspase-9 (Homo sapiens, UniProt P55211); experiment: Caspase-9 inhibitory effect (fluorescent substrate AcLEHD-AFC); assay type: biochemical; conditions: pH 7.5; 25° C., 150 μM AcLEHD-AFC, 200 nM caspase-9; read-out: Caspase-9 Kobs/[I] (converted)
# T3 construct: p10 and p20 subunits (Thornberry, N. A. et al, Nature, 1992, 356, 768) were expressed in E. coli; made in house; host or cells: E. coli
# T3 sequence (P55211 1-315 limits assumed): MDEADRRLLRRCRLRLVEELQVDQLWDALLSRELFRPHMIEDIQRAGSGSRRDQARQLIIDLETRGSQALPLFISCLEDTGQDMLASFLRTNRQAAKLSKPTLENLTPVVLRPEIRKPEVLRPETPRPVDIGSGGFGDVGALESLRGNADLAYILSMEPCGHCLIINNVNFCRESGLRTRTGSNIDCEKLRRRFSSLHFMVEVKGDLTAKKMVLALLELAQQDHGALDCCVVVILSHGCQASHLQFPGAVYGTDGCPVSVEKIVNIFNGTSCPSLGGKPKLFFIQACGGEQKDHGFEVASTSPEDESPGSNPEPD
# T3 sequence (P55211 331-416 limits assumed): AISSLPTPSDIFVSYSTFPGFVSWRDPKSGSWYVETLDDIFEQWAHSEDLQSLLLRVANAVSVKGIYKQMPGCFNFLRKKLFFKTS
# Procedure: as §1, with “The enzyme reaction was carried out at 25° C. with various concentrations of the inhibitors in a buffer solution containing 50 mM HEPES(pH 7.50), 10% (w/v) sucrose, 0.1% (w/v) CHAPS, 100 mM NaCl, 1 mM EDTA, and 10 mM DTT in the presence of 50 μM AcYVAD-AFC for 10 nM caspase-1, 50 μM AcDEVD-AFC for 2.1 nM caspase-8, and 150 μM AcLEHD-AFC for 200 nM caspase-9.” left out, “Kobs=−ln(1−At/Aoo)/t Equation 1” left out
SMILES,kinact/KI (caspase-8) [M⁻¹ s⁻¹],kinact/KI (caspase-1) [M⁻¹ s⁻¹],IC50 [1] [µM],kinact/KI (caspase-9) [M⁻¹ s⁻¹]
"CCC1(C(=O)N[C@@H](CC(=O)O)C(=O)COc2c(F)c(F)cc(F)c2F)CC(c2cccc3ccccc23)=NO1 (stereo partly drawn) [Idd, (3S)-3-({[5-ethyl-3-(1-naphthyl)-4,5-dihydro-5-isoxazolyl]carbonyl}amino)-4-oxo-5-(2,3,5,6-tetrafluorophenoxy)pentanoic Acid]",3170,5170,4.25,–
"CCC1(C(=O)NC(CC(=O)O)C(=O)CF)CC(c2nccc3ccccc23)=NO1 (stereo not shown) [Igg, 3-({[5-Ethyl-3-(1-isoquinolinyl)-4,5-dihydro-5-isoxazolyl]carbonyl}amino)-5-fluoro-4-oxopentanoic acid]",25000,45000,0.17,5330
"CCC1(C(=O)N[C@@H](CC(=O)O)C(=O)COc2c(F)c(F)cc(F)c2F)CC(COc2cccc3ccccc23)=NO1 (stereo partly drawn) [Ipp, (3S)-3-[({5-Ethyl-3-[(1-naphthyloxy)methyl]-4,5-dihydro-5-isoxazolyl]carbonyl)amino]-4-oxo-5-(2,3,5,6-tetrafluorophenoxy)pentanoic acid]",2830,38300,3.5,–

# Now from value to compound:
kinact/KI (caspase-8) [M⁻¹ s⁻¹],kinact/KI (caspase-1) [M⁻¹ s⁻¹],IC50 [1] [µM],kinact/KI (caspase-9) [M⁻¹ s⁻¹],SMILES
550,3170,22.5,–,"CCC1(C(=O)N[C@@H](CC(=O)O)C(=O)COc2c(F)c(F)cc(F)c2F)CC(c2ccccc2)=NO1 (stereo partly drawn) [Icc, (3S)-3-{[(5-ethyl-3-phenyl-4,5-dihydro-5-isoxazolyl)carbonyl]amino}-4-oxo-5-(2,3,5,6-tetrafluorophenoxy)pentanoic acid]"
2330,55000,37,–,"CCC1(C(=O)N[C@@H](CC(=O)O)C(=O)COc2c(F)c(F)cc(F)c2F)CC(COc2ccc(Cl)c3ccccc23)=NO1 (stereo partly drawn) [Iqq, (3S)-3-{[(3-{[(4-Chloro-1-naphthyl)oxy]methyl}-5-ethyl-4,5-dihydro-5-isoxazolyl)carbonyl]amino}-4-oxo-5-(2,3,5,6-tetrafluorophenoxy)pentanoic acid]"
